Test results reported in ChEMBL document CHEMBL1201862, “PubChem BioAssay data set” (2004).
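A five-concentration, 48-hour dose response in 96-well plates underlies each endpoint, interpolated linearly between surrounding concentrations. GI50 = concentration required for 50% inhibition of growth.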 Calls of active or inactive are those of the source. Rule as the data show it: active = GI50 up to about 1.1 µM and inactive = higher.

Assays:
Assay in all cases: NCI tumour cell line growth inhibition, 48 h
COLO 205 = tested on: COLO 205
MDA-N = tested on: MDA-N
UACC-257 = tested on: UACC-257
HOP-62 = tested on: HOP-62
HCT-15 = tested on: HCT-15
A498 = tested on: A498
DU-145 = tested on: DU-145
SR = tested on: SR
NCI-H522 = tested on: NCI-H522
K562 = tested on: K562
M14 = tested on: M14
OVCAR-3 = tested on: OVCAR-3
MDA-MB-435 = tested on: MDA-MB-435
OVCAR-5 = tested on: OVCAR-5
MDA-MB-231 = tested on: MDA-MB-231
UO-31 = tested on: UO-31
OVCAR-8 = tested on: OVCAR-8
NCI-H226 = tested on: NCI-H226
A549 = tested on: A549
EKVX = tested on: EKVX

CCCCNc1nc(SC)nc2[nH]cnc12
GI50 (COLO 205): > 100 µM (inactive) | GI50 (MDA-N): > 100 µM (inactive) | GI50 (UACC-257): > 100 µM (inactive) | GI50 (HOP-62): > 100 µM (inactive) | GI50 (HCT-15): > 100 µM | GI50 (A498): 5.96 µM (inactive) | GI50 (DU-145): > 100 µM (inactive) | GI50 (SR): > 100 µM (inactive) | GI50 (NCI-H522): > 100 µM (inactive) | GI50 (K562): > 100 µM (inactive) | GI50 (M14): > 100 µM (inactive) | GI50 (OVCAR-3): > 100 µM (inactive) | GI50 (MDA-MB-435): > 100 µM (inactive) | GI50 (OVCAR-5): > 100 µM (inactive) | GI50 (MDA-MB-231): > 81.1 µM (inactive) | GI50 (UO-31): > 100 µM (inactive) | GI50 (OVCAR-8): > 64.4 µM (inactive) | GI50 (NCI-H226): > 100 µM (inactive) | GI50 (A549): > 100 µM (inactive) | GI50 (EKVX): > 87.7 µM (inactive)

N[C@H]1CCN(c2c(F)cc3c(=O)c(C(=O)O)cn4c3c2Oc2cc3c(ccc5ccccc53)cc2-4)C1
GI50 (COLO 205): 2.75 µM (inactive) | GI50 (MDA-N): 3.03 µM (inactive) | GI50 (UACC-257): 4.9 µM (inactive) | GI50 (HOP-62): 4.06 µM (inactive) | GI50 (HCT-15): 3.98 µM | GI50 (A498): 3.56 µM (inactive) | GI50 (DU-145): 4.05 µM (inactive) | GI50 (SR): 2.52 µM (inactive) | GI50 (NCI-H522): 4 µM (inactive) | GI50 (K562): 2.82 µM (inactive) | GI50 (M14): 4.68 µM (inactive) | GI50 (OVCAR-3): 4.48 µM (inactive) | GI50 (MDA-MB-435): 3.88 µM (inactive) | GI50 (OVCAR-5): 11 µM (inactive) | GI50 (MDA-MB-231): 0.014 µM (active) | GI50 (UO-31): 4.79 µM (inactive) | GI50 (OVCAR-8): 2.96 µM (inactive) | GI50 (NCI-H226): 2.58 µM (inactive) | GI50 (A549): 3.87 µM (inactive) | GI50 (EKVX): 3.65 µM (inactive)

CCOC(=O)C(Cc1ccc(N(CCCl)CCCl)cc1)NC(=O)CCCN1C(=O)CN=C(c2ccccc2)c2cc(Cl)ccc21 (stereo not given)
GI50 (COLO 205): 16.2 µM (inactive) | GI50 (MDA-N): 6.11 µM (inactive) | GI50 (UACC-257): 3.6 µM (inactive) | GI50 (HOP-62): 36.9 µM (inactive) | GI50 (HCT-15): 20.6 µM | GI50 (A498): 39.9 µM (inactive) | GI50 (DU-145): 14.9 µM (inactive) | GI50 (SR): 2.31 µM (inactive) | GI50 (NCI-H522): 3.03 µM (inactive) | GI50 (K562): 6.32 µM (inactive) | GI50 (M14): 7 µM (inactive) | GI50 (OVCAR-3): 2.22 µM (inactive) | GI50 (MDA-MB-435): 16.1 µM (inactive) | GI50 (OVCAR-5): > 100 µM (inactive) | GI50 (MDA-MB-231): 22.1 µM (inactive) | GI50 (UO-31): 13.8 µM (inactive) | GI50 (OVCAR-8): 18.7 µM (inactive) | GI50 (NCI-H226): 35.2 µM (inactive) | GI50 (A549): 39.1 µM (inactive) | GI50 (EKVX): 41.3 µM (inactive)

O=C1c2cccnc2C(=O)c2c1nc1ccccc1c2-c1cncc(-c2c3c(nc4ccccc24)C(=O)c2cccnc2C3=O)c1
GI50 (COLO 205): 0.525 µM (active) | GI50 (MDA-N): 0.399 µM (active) | GI50 (UACC-257): 0.318 µM (active) | GI50 (HOP-62): 0.281 µM (active) | GI50 (HCT-15): 0.0251 µM | GI50 (A498): 2.56 µM (inactive) | GI50 (DU-145): 0.165 µM (active) | GI50 (SR): < 0.01 µM (active) | GI50 (NCI-H522): 0.103 µM (active) | GI50 (K562): 0.213 µM (active) | GI50 (M14): 0.115 µM (active) | GI50 (OVCAR-3): 0.0752 µM (active) | GI50 (MDA-MB-435): 0.256 µM (active) | GI50 (OVCAR-5): 1.8 µM (inactive) | GI50 (MDA-MB-231): 0.237 µM (active) | GI50 (UO-31): 0.244 µM (active) | GI50 (OVCAR-8): 0.0634 µM (active) | GI50 (NCI-H226): 0.163 µM (active) | GI50 (A549): 0.37 µM (active) | GI50 (EKVX): 0.264 µM (active)

CC(CO)(CO)/N=C/c1cc(I)cc(I)c1O
GI50 (COLO 205): 17.8 µM (inactive) | GI50 (MDA-N): 19.7 µM (inactive) | GI50 (UACC-257): 20.9 µM (inactive) | GI50 (HOP-62): 11.2 µM (inactive) | GI50 (HCT-15): 9.33 µM | GI50 (A498): 26.5 µM (inactive) | GI50 (DU-145): 11.6 µM (inactive) | GI50 (SR): 8.53 µM (inactive) | GI50 (NCI-H522): 19.1 µM (inactive) | GI50 (K562): 27.1 µM (inactive) | GI50 (M14): 14.1 µM (inactive) | GI50 (OVCAR-3): 9.79 µM (inactive) | GI50 (MDA-MB-435): 13.5 µM (inactive) | GI50 (OVCAR-5): 22.3 µM (inactive) | GI50 (MDA-MB-231): 18.7 µM (inactive) | GI50 (UO-31): 12 µM (inactive) | GI50 (OVCAR-8): 15.5 µM (inactive) | GI50 (NCI-H226): 16.4 µM (inactive) | GI50 (A549): 54.8 µM (inactive) | GI50 (EKVX): 19.5 µM (inactive)

COc1ccc(-n2c(CCC(=O)O)nc3c2C(=O)c2ccccc2C3=O)cc1
GI50 (COLO 205): > 100 µM (inactive) | GI50 (MDA-N): > 100 µM (inactive) | GI50 (UACC-257): > 100 µM (inactive) | GI50 (HOP-62): > 100 µM (inactive) | GI50 (HCT-15): > 100 µM | GI50 (A498): > 100 µM (inactive) | GI50 (DU-145): > 100 µM (inactive) | GI50 (SR): > 100 µM (inactive) | GI50 (NCI-H522): 34.3 µM (inactive) | GI50 (K562): 71.3 µM (inactive) | GI50 (M14): > 100 µM (inactive) | GI50 (OVCAR-3): 98.2 µM (inactive) | GI50 (MDA-MB-435): 96.4 µM (inactive) | GI50 (OVCAR-5): > 100 µM (inactive) | GI50 (MDA-MB-231): > 100 µM (inactive) | GI50 (UO-31): > 100 µM (inactive) | GI50 (OVCAR-8): > 100 µM (inactive) | GI50 (NCI-H226): > 100 µM (inactive) | GI50 (A549): > 100 µM (inactive) | GI50 (EKVX): > 100 µM (inactive)
